Like-named read-outs stand apart in the source and are kept apart here.
Columns and labels:
human TLR9 = molecular target: T1, human TLR9 (Homo sapiens, UniProt Q9NR96); assay: Inhibition of human TLR9 in human B cells (IL-6 ELISA); format: cell-based; details: for IC50: human B cells, agonist 1018 ISS 1 μM, IL-6 readout, 48 hours, range about 0.01 to 10 μM, read-out: Human TLR9 IC50; for inhibits TLR9-dependent responses (in words): summary statement of the description
T1 construct: endogenous in cells; host or cells: primary human B cells (CD19 microbeads) from buffy coats of healthy donors
T1 sequence (Q9NR96 26-1032): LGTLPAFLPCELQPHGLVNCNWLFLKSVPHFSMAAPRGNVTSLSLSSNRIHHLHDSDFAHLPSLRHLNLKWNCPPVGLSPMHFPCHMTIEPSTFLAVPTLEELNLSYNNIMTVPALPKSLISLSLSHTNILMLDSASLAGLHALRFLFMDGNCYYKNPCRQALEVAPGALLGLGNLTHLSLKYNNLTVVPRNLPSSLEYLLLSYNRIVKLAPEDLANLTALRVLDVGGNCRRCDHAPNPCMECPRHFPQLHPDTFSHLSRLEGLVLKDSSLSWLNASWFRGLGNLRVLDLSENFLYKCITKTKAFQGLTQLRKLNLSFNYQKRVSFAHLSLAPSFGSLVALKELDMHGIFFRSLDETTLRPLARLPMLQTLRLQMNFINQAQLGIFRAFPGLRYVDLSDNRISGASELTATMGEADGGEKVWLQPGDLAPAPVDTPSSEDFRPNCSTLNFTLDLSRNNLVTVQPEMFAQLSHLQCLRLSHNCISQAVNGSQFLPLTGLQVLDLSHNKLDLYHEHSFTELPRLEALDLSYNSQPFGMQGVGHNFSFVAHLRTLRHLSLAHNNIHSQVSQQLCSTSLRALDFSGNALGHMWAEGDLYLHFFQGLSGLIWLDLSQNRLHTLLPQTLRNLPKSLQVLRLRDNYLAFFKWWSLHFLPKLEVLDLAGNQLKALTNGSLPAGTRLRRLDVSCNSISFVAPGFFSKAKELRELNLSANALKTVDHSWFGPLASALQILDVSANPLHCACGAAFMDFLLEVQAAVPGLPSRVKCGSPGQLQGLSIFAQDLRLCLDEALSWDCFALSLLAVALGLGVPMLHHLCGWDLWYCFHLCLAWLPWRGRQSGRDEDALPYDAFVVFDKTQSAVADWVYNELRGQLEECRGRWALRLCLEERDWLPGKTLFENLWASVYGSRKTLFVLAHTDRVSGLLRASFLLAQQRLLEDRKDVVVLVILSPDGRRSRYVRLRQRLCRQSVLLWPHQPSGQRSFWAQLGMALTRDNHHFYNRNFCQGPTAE
Procedure: Example B3—Inhibition of Human TLR9 in Human B Cells
When placed in cell culture, engagement of TLR9 with an agonist leads to expression and release of cytokines into the media.
Buffy coats from anonymized, healthy human donors. CD19 microbeads (Miltenyi Cat. No. 130-050-301). TLR9 agonist, 1018 ISS, CpG-containing DNA oligonucleotide. Human interleukin (IL)-6 ELISA kit (Mabtech Cat. No. 3460-1H-20).
Following isolation of […] from buffy coats, human B cells were plated into 96 well plates at approximately 300,000 cells per well. Test compounds were serially diluted and added to the plates. Test compounds were typically assayed using a concentration range from about 0.01 μM to about 10 μM. Certain test compounds were further assayed in an expanded dilution series using a compound concentration range from about 0.001 μM to about 30 μM. Immediately after adding test compounds, the TLR9 agonist (1018 ISS, CpG-containing DNA oligonucleotide) was added to a final concentration of 1 μM. Cells were incubated for 48 hours at 37° C. A portion of the media supernatant was analyzed for the presence of IL-6 using ELISA kits. The amount of IL-6 produced is a reflection of the amount of TLR9-dependent receptor activity. The IC50 values (the concentration at which 50% of the TLR9-dependent receptor activity is reduced) were calculated based upon the TLR9-dependent receptor activity over a range of different test compound concentrations.

human TLR8 = molecular target: T2, human TLR8 (Homo sapiens, UniProt Q9NR97); assay: Inhibition of human TLR8 in human monocytes (TNF-alpha / IL-1 beta ELISA); format: cell-based; details: human monocytes, agonist ORN8L 100 μg/mL, 24 hours
T2 construct: endogenous in cells; host or cells: primary human monocytes (CD14 microbeads) from buffy coats of healthy donors
T2 sequence (Q9NR97 27-1041): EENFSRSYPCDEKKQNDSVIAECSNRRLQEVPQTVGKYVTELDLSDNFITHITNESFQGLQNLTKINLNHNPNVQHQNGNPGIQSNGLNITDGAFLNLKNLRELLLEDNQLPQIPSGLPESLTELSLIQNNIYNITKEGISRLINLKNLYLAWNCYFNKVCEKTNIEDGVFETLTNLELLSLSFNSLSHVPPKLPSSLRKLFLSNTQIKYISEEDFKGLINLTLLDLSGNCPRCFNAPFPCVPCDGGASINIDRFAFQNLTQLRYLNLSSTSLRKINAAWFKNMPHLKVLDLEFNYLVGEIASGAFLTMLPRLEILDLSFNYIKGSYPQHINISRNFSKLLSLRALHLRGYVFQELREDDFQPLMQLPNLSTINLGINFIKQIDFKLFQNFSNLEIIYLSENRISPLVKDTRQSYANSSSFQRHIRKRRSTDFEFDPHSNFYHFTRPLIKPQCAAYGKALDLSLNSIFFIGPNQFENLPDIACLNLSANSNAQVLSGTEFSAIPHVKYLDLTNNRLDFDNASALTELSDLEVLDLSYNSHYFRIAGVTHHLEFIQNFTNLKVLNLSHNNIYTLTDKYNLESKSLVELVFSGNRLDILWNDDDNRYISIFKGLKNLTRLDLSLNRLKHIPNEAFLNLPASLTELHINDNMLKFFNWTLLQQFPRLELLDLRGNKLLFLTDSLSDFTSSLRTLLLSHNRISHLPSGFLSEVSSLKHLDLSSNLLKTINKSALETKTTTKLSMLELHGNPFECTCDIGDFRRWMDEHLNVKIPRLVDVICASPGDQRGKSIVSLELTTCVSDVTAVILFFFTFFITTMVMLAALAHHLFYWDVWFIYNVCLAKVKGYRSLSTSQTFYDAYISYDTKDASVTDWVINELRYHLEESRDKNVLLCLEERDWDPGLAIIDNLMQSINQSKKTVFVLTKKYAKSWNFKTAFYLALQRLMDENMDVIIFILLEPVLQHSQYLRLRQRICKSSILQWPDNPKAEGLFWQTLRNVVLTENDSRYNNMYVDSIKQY
Excerpt: Example B2—Inhibition of Human TLR8 in Human Monocytes
When placed in cell culture, engagement of TLR8 with an agonist leads to expression and release of cytokines into the media.
Buffy coats from anonymized, healthy human donors. CD14 microbeads (Milteny Cat. No. 130-050-201). TLR8 agonist, (5′-M2UGCUGCUUGUG-/glycerol/-GUGUUCGUCGUM2-5′ with M2=C6-linker, ORN8L, RNA oligonucleotide (Chem Genes Corp.). Human TNF-alpha ELISA kit (Mabtech Cat. No. 3510-1H-20). Human interleukin (IL)-1 beta ELISA kit (Mabtech Cat. No. 3415-1H-20).
Following isolation of monocytes from buffy coats, human monocytes were plated into 96 well plates at approximately 200,000 cells per well. Test compounds were serially diluted and added to the plates. Immediately after adding test compounds, the TLR8 agonist (ORN8L, RNA oligonucleotide) was added to a final concentration of 100 μg/mL. Cells were incubated for 24 hours at 37° C. A portion of the media supernatant was analyzed for the presence of TNF-alpha and/or IL-1 beta using ELISA kits. The amount of TNF-alpha or IL-1 beta produced is a reflection of the amount of TLR8-dependent receptor activity. The IC50 values (the concentration at which 50% of the TLR8-dependent receptor activity is reduced) were calculated based upon the TLR8-dependent receptor activity over a range of different test compound concentrations.

[1] = IL-1 beta readout, read-out: Human TLR8 IC50 IL-1b
[2] = TNF-alpha readout, read-out: Human TLR8 IC50 TNF-a

| IC50 (human TLR9) [nM] | IC50 (human TLR8; [1]) [nM] | IC50 (human TLR8; [2]) [nM] | inhibits TLR9-dependent responses (in words) (human TLR9) | SMILES |
| --- | --- | --- | --- | --- |
| 360 | > 10000 | > 10000 |  | Cc1ccc(-n2nc3c(N4CCC(C(=O)NCC(C)(C)CN)CC4)nnc(C)c3c2C)cc1 [Compound No. 7, N-(3-amino-2,2-dimethylpropyl)-1-(3,4-dimethyl-2-(p-tolyl)-2H-pyrazolo[3,4-d]pyridazin-7-yl)piperidine-4-carboxamide] |
| 379 | > 10000 | > 10000 |  | Cc1ccc(-n2nc3c(N4CCC(C(=O)NCCCN5CCC5)CC4)nnc(C)c3c2C)cc1 [Compound No. 11, N-(3-(azetidin-1-yl)propyl)-1-(3,4-dimethyl-2-(p-tolyl)-2H-pyrazolo[3,4-d]pyridazin-7-yl)piperidine-4-carboxamide] |
| 71 | > 10000 | > 10000 |  | Cc1ccc(-n2nc3c(N4CCC(C(=O)N[C@H]5C[C@H](N(C)C)C5)CC4)nnc(C)c3c2C)cc1 [Compound No. 12a, 1-(3,4-dimethyl-2-(p-tolyl)-2H-pyrazolo[3,4-d]pyridazin-7-yl)-N-((1r,3r)-3-(dimethylamino)cyclobutyl)piperidine-4-carboxamide] |
| 18 | 740 | 740 | inhibit | Cc1ccc(-n2nc3c(N4CCC(C(=O)NCCCN5CCOCC5)CC4)nnc(C)c3c2C)cc1 [Compound No. 19x, 1-(3,4-dimethyl-2-(p-tolyl)-2H-pyrazolo[3,4-d]pyridazin-7-yl)-N-(3-morpholinopropyl)piperidine-4-carboxamide] |
| 4 | > 10000 | > 10000 | inhibit | Cc1ccc(-n2nc3c(N4CCC(C(=O)NCCN(C)C)CC4)nnc(C)c3c2C)cc1 [Compound No. 21x, 1-(3,4-dimethyl-2-(p-tolyl)-2H-pyrazolo[3,4-d]pyridazin-7-yl)-N-(2-(dimethylamino)ethyl)piperidine-4-carboxamide] |
| 31 | > 10000 | > 10000 | inhibit | Cc1ccc(-n2nc3c(N4CCC(CC(=O)NCCCN(C)C)CC4)nnc(C)c3c2C)cc1 [Compound No. 22, 2-(1-(3,4-dimethyl-2-(p-tolyl)-2H-pyrazolo[3,4-d]pyridazin-7-yl)piperidin-4-yl)-N-(3-(dimethylamino)propyl)acetamide] |
| 7 | 1610 | > 10000 | inhibit | Cc1ccc(-n2cc3cnnc(N4CCC(C(=O)NCCCN(C)C)CC4)c3n2)cc1 [Compound No. 29, N-(3-(dimethylamino)propyl)-1-(2-(p-tolyl)-2H-pyrazolo[3,4-d]pyridazin-7-yl)piperidine-4-carboxamide] |
| 2230 |  | ≥ 20000 |  | Cc1ccc(-c2nc3c(N4CCC(C(=O)NCCCN(C)C)CC4)cccc3n2C)cc1 [Compound No. 53, N-(3-(dimethylamino)propyl)-1-(1-methyl-2-(p-tolyl)-1H-benzo[d]imidazol-4-yl)piperidine-4-carboxamide] |
| 118 |  | 11700 |  | Cc1ccc(-n2nc3c(N4CCN(C(=O)NCCCN(C)C)CC4)nnc(C)c3c2C)cc1 [Compound No. 76, 4-(3,4-dimethyl-2-(p-tolyl)-2H-pyrazolo[3,4-d]pyridazin-7-yl)-N-(3-(dimethylamino)propyl)piperazine-1-carboxamide] |
| 308 | > 10000 | > 10000 |  | Cc1ccc(-n2nc3c(N4CCC(C(=O)NCCNC(C)C)CC4)nnc(C)c3c2C)cc1 [compound 8, 1-(3,4-dimethyl-2-(p-tolyl)-2H-pyrazolo[3,4-d]pyridazin-7-yl)-N-(2-(isopropylamino)ethyl)piperidine-4-carboxamide] |
| 292 | > 10000 | > 10000 |  | Cc1ccc(-n2nc3c(N4CCC(C(=O)NCCCN(C)C)C4)nnc(C)c3c2C)cc1 (stereo not shown) [compound 13, 1-(3,4-dimethyl-2-(p-tolyl)-2H-pyrazolo[3,4-d]pyridazin-7-yl)-N-(3-(dimethylamino)propyl)pyrrolidine-3-carboxamide] |
| 250 | > 10000 | > 10000 |  | Cc1ccc(-n2nc3c(N4CC(C(=O)NCCCN(C)C)C4)nnc(C)c3c2C)cc1 [compound 15, 1-(3,4-dimethyl-2-(p-tolyl)-2H-pyrazolo[3,4-d]pyridazin-7-yl)-N-(3-(dimethylamino)propyl)azetidine-3-carboxamide] |
| 46 |  | ≥ 20000 |  | Cc1ccc(-n2nc3c(N4CCCC(C(=O)NCCNC(C)C)C4)nnc(C)c3c2C)cc1 (stereo not shown) [compound 16, 1-(3,4-dimethyl-2-(p-tolyl)-2H-pyrazolo[3,4-d]pyridazin-7-yl)-N-(2-(isopropylamino)ethyl)piperidine-3-carboxamide] |
